Measurements as given in paper PMC3981761, “A New Assay for Determining Ganglioside Sialyltransferase Activities Lactosylceramide-2,3-Sialyltransferase (SAT I) and Monosialylganglioside-2,3-Sialyltransferase (SAT IV)” (PLoS ONE, 2014).

System: T1, recombinant α2,3-(O)-sialyltransferase (EC 2.4.99.4), rat liver
T1 construct: gene St3gal2; recombinant commercial enzyme (EMD Bioscience), originating from rat liver
Assay: HPLC with fluorescence detection of BODIPY-GD1a formed
Format: biochemical
Settings: BODIPY-GM1 constant at 13 μM, pH 6, Mes, Triton, 37°C, 1 h; donor substrate

CC(=O)N[C@H]1[C@H]([C@H](O)[C@H](O)CO)O[C@](OP(=O)(O)OC[C@H]2O[C@@H](n3ccc(N)nc3=O)[C@H](O)[C@@H]2O)(C(=O)O)C[C@@H]1O [CMP-NeuAc]
Km: 23.4 ± 0.1 µM
